Measurements reported in patent US6811965B2, “Kidney perfusion solution containing nitric oxide donor, inhibitor of NOS2, glutathione, gluconate and methods of use” (priority 2000, dated 2004).

How the values were obtained:
[1] = test system: porcine coronary arteries; settings: porcine model of balloon angioplasty and subsequent endovascular radiation; cited from earlier work
[2] = test system: Porcine kidneys; assay: Pulsatile perfusion preservation of explanted porcine kidneys; settings: GSNO 90 micromolar, L-NIL 694 micromolar
Method: GSNO and L-NIL dihydrate hydrochloride were purchased from Alexis Corporation (San Diego, Calif.). Solution A was prepared by weighing out 30 milligrams of GSNO powder and adding it to 1 milliliter of Belzer Machine Perfusion solution (Transmed, Elk Grove, Minn.), and then injecting it into 1 liter of Belzer Perfusion solution while the perfusion solution was circulating through a Waters Instruments (Rochester, Minn.) kidney perfusion circuit (final concentration: 30 milligrams/liters; 90 micromolar). Solution B was prepared by weighing out 187 milligrams of L-NIL dihydrate hydrochloride powder and adding it to 3.5 milliliters of Belzer Machine Perfusion solution, and then injecting it into Solution A while the solution was circulating through a Waters Instruments kidney perfusion circuit (final concentration: 187 milligrams/liter; 694 micromolar).
Porcine kidneys were obtained following a warm ischemic time of 30-45 minutes. The kidneys were flushed with 1 L of Lactated Ringer's solution at 5 degrees C., and then flushed with 1 L Viaspan™ solution (DuPont, Wilmington, Del.) at 5 degrees C. The kidneys were then stored at 5 degrees C. for 3-30 h, at which time the kidneys were placed on a Waters Instruments (Rochester, Minn.) kidney perfusion circuit and perfused with 1 L of Belzer Machine Perfusion solution (Transmed, Elk Grove, Minn.). During the perfusion period, the kidneys were kept at a constant pressure of 40 mmHg. Eight kidneys were perfused with Belzer Machine Perfusion solution only, another eight kidneys were perfused with Belzer Machine Perfusion solution containing solution A (prepared as in Example 1), and a further eight kidneys were perfused with Belzer Machine Perfusion solution containing Solution B (prepared as in Example 1).
Hourly samples (3 ml total) were taken from each kidney for at least 5 hours, and in some cases 6 hours. Blood chemistry was analyzed using a GEMStat analyzer (Instruments Laboratory, Boston, Mass.). Statistical analyses were performed using Sigmastat software (SPSS, Chicago, Ill.).

[3] = statistically significant effect relative to control perfusion solution, 5-6 h

## N[C@@H](CCC(=O)N[C@@H](CSN=O)C(=O)NCC(=O)O)C(=O)O [GSNO, S-nitrosoglutathione]
[1]
  thrombosis: suppress thrombosis
[2]; statistically significant effect relative to control (Belzer Machine Perfusion solution only), constant pressure 40 mmHg, hourly samples 5-6 h
  Vascular Resistance: Lower
[2]; [3]
  Base Excess: More
  Ca2+: Higher
  Hematocrit: Lower
  Oxygen Saturation: Equal
[2]; statistically significant effect relative to control perfusion solution, 40 mmHg, 5-6 h
  Flow: Higher
